Assay results from patent publication US10556926B2, “Synthetic artificial peptides with antimicrobial effect” (priority 2014, dated 2020).
Read-outs that look alike come from different tables or passages of the source. No end group written: not given here.

Columns and labels:
[1] = test system: human histiocytic lymphoma cell line U937; test: Cytotoxicity, direct membrane damage (CytoTox 96), LD50; format: cell-based; details: U937, two hours at 37° C., 0.25-64 μM
Description: The direct membrane damage was investigated with the help of the CytoTox 96 Non-Radioactive Cytotoxicity Assay (Promega, Mannheim, Germany). For this purpose, the cells were sedimented at 100 g for ten minutes at 4° C., and 50 μl of the resulting culture supernatant were added to 50 μl of the CytoTox substrate mix. After an incubation time of 30 minutes in the dark at room temperature, 50 μl of the CytoTox stopping solution were added to the sample and the absorption was measured at 490 nm. To determine the LD50 value, the measurement value of the negative control was deducted from the absorption values and divided by the measurement value of the permeabilization control. The calculated values were plotted graphically against the peptide concentration and fitted using the Origin pro 8.1 G Software according to a sigmoidal model and the LD50 values were ascertained from this. The calculation was carried out analogously to example 5 by reference to the solution of equation 5.1 for the case y=50, where y in this case corresponds to the relative cytotoxicity in percent and x corresponds to the peptide concentration in μM. Representative graphical evaluations of LD50 values are shown in FIG. 6 by reference to the measurement results for the reference peptides BMAP-27, protamine and KL-helix, and also the peptide O1 according to the invention.

Staphylococcus xylosus = test system: Staphylococcus xylosus
Description: (§1) The minimum inhibitory concentration (MIC) of the peptides was carried out by way of example against gram(−) E. coli DH5α (and gram(+) Staphylococcus xylosus (both Deutsche Sammlung von Mikroorganismen and Zellkulturen, DSMZ) in a standardized microdilution method according to the general guidelines of the CLSI (Clinical and Laboratory Standards Institute 2006) and EUCAST (European Committee for Antimicrobial Susceptibility Testing of the European Society of Clinical Microbiology and Infectious Diseases 2003) with slight adaptations to the investigation of cationic antimicrobial peptides (Wiegand et al. 2008). The bacteria cells were cultivated in Mueller-Hinton-Boullion (MHB) to an optical density of 0.4 to 0.6 at 600 nm wavelength, corresponding to about 4·10^8 bacteria per ml. Then, the bacteria cultures were diluted to a bacteria concentration of about 1·10^5 bacteria per ml in sterile MHB. Using the peptides, series of 2-fold dilutions starting at 128 μM to the smallest dilution of 0.5 μM in MHB were prepared. The peptide dilutions were mixed with the dilute bacteria cultures in a […] in the chambers of a 96-well polypropylene microtiter plate (Starlab, Hamburg, Germany), so that the peptides were present in an end concentration between 64 μM and 0.25 μM at a bacteria concentration of 5·10^4 bacteria/ml. Sterile MHB served as negative control, and the positive control used as the corresponding bacteria concentration in MHB without the addition of peptide. The microtiter plates were incubated for 18 hours at 37° C. with shaking at 120 rpm in a climatically controlled chamber. After the incubation, the bacteria concentration was determined by renewed absorption measurement at a wavelength of 600 nm.

E. coli DH5α = test system: E. coli DH5α
Description: as §1

[2] = test system: human histiocytic lymphoma cell line U937; test: Long-term growth inhibition, minimum toxic concentration (MTC)
Description: The cytotoxic potential of the antimicrobial peptides was determined by way of example by reference to the human histiocytic lymphoma cell line U937 (DSMZ). The influence of the peptides on the permeability of the cell membrane and their longer-term growth-inhibiting effect was investigated. 15 ml of RPMI 1640 medium with 2 mM glutamine and 10% FCS (Biochrom, Berlin, Germany) were inoculated with 1·10^5 cells per ml and cultivated for three days at 37° in T75 cell culture bottles (TPP, Trasadingen, Switzerland) with constant gassing with 5% CO2 in a climatically controlled chamber. The medium was admixed with 10 U/ml penicillin and […] streptomycin (both AppliChem, Darmstadt, Germany) to avoid bacterial contaminations, with no further antibiotics being added during the subsequent recultivation. Before each experiment, the cells were washed by centrifugation at 100 g for five minutes and subsequent resuspension in RPMI 1640 medium with 2 mM glutamine and 10% FCS in each case two times and adjusted to a concentration of 1·10^5 cells per ml. Finally, in each case 100 μl of the U937 cells were transferred to the reaction chambers of a sterile 96-well polypropylene microtiter plate and admixed with in each case 100 μl of a prediluted antimicrobial peptide in RPMI 1640 medium without antibiotic addition, such that end concentrations of in each case 5·10^4 cells per ml at peptide concentrations between 0.25 μM and 64 μM were present. The negative control used was samples without antimicrobial peptide, while Triton X-100 (AppliChem) was used in an end concentration of 5% as positive control for the permeabilization. The samples were cultivated for two hours at 37° C. and with continuous gassing with 5% CO2 in a climatically controlled chamber. Then, in each case 100 μl of each sample were removed and transferred to new sterile microtiter plates for determining the direct membrane damage. The remaining 100 μl of the samples were cultivated for at least four further days.
For this purpose, 10 μl of lysing solution were added to in each case 100 μl of cell suspension and incubated for 60 minutes at 37° C. Then, the cell culture supernatants were investigated as described above. The lowest peptide concentration at which complete suppression of the cell growth was established after four days was stipulated as the minimum toxic concentration (MTC).

[3] = MHB, 18 hours at 37° C., mean of four test series

Row | Substance | Toxicity LD50 [1] | MIC S. xylosus (Staphylococcus xylosus; 18 h) | MIC E. coli (E. coli DH5α; DH5α, 18 h) | Toxicity MTC (minimum toxic concentration) [2] | MIC S. xylosus (Staphylococcus xylosus; [3]) | MIC E. coli (E. coli DH5α; [3])
1 | RRRLLLLLRRR [S3] | >64 µM | 1 µM | 8 µM |  |  | 
2 | RKRKLILILIKRKR [A1] | >64 µM | 0.5 µM | 8 µM | >64 µM |  | 
3 | KKKFFFFFKKK [S8] | >64 µM | 4 µM | 16 µM |  |  | 
4 | KKKKKIIIIIKKKKD [D4] | >64 µM | 16 µM | 32 µM | >64 µM |  | 
5 | RRRIIIIIRRR [S1] | >64 µM | 2 µM | 8 µM |  |  | 
6 | RRRFFFFFRRR [S7] | >64 µM | 0.5 µM | 4 µM |  |  | 
7 | KKKKKIIIIIDDDDK [D8] | >64 µM | >64 µM | >64 µM | >64 µM |  | 
8 | RKLILKRKRILIKR [A3] | >64 µM | 8 µM | 16 µM | >64 µM |  | 
9 | KKKKKIIIIIKDDDD [D2] | >64 µM | >64 µM | >64 µM | >64 µM |  | 
10 | RKRKILILIKRK [N2] | >64 µM | 2 µM | 8 µM | >64 µM |  | 
11 | LIKRK [N8, LIKRK] | >64 µM | >64 µM | >64 µM | >64 µM |  | 
12 | KLILKRKRKRILIK [A4] | >64 µM | 16 µM | 32 µM | >64 µM |  | 
13 | KKKKKIIIIIDDDKK [D7] | >64 µM | >64 µM | >64 µM | >64 µM |  | 
14 | KRKILIKRK [H3] | >64 µM | 64 µM | >64 µM | >64 µM |  | 
15 | KRKLILKRILIKRK [A2] | >64 µM | 8 µM | 16 µM | >64 µM |  | 
16 | KRKKRK [H6, KRKKRK] | >64 µM | 16 µM | >64 µM | >64 µM |  | 
17 | KKKKKIIIIIKKKDD [D3] | >64 µM | 32 µM | >64 µM | >64 µM |  | 
18 | LKLLKKLLKKLLKLL [KL-helix] |  | 2 µM | 4 µM | 8.0 µM |  | 
19 | KKKIIIIIKKK [S2] | >64 µM | 0.5 µM | 8 µM |  |  | 
20 | KRKLIKRK [H4] | >64 µM | >64 µM | >64 µM | >64 µM |  | 
21 | KKKKKIIIIIKKKKK [D5] | >64 µM | 2 µM | 16 µM | >64 µM |  | 

Row | Substance | Toxicity LD50 [1] | MIC S. xylosus (Staphylococcus xylosus; 18 h) | MIC E. coli (E. coli DH5α; DH5α, 18 h) | Toxicity MTC (minimum toxic concentration) [2] | MIC S. xylosus (Staphylococcus xylosus; [3]) | MIC E. coli (E. coli DH5α; [3])
22 | KRKILILILIKRK [H1] | >64 µM | 1 µM | 8 µM | >64 µM |  | 
23 | KRKGSGKRK [H8] | >64 µM | >64 µM | >64 µM | >64 µM |  | 
24 | ILILILILKRK [M3] | >64 µM | >64 µM | >64 µM | >64 µM |  | 
25 | RKILILIKRK [N3] | >64 µM | 4 µM | 16 µM | >64 µM |  | 
26 | KRKILILIKRKRK [C1] | 61 µM | 1 µM | 16 µM | >64 µM |  | 
27 | KRKILIL [C6, KRKILIL] | >64 µM | >64 µM | >64 µM | >64 µM |  | 
28 | KRKILILIKRKR [C2] | >64 µM | 2 µM | 16 µM | >64 µM |  | 
29 | KRKILI [C7, KRKILI] | >64 µM | >64 µM | >64 µM | >64 µM |  | 
30 | KKKVVVVVKKK [S6] | >64 µM | 8 µM | 64 µM |  |  | 
31 | KKKLLLLLKKK [S4] | >64 µM | 8 µM | 16 µM |  |  | 
32 | RRRVVVVVRRR [S5] | >64 µM | 2 µM | 32 µM | >64 µM |  | 
33 | KRKSGSGSKRK [M6] | >64 µM | >64 µM | >64 µM | >64 µM |  | 
34 | KRKILILI [C5] | >64 µM | >64 µM | >64 µM | >64 µM |  | 
35 | KRKILILIGSG [M4] | >64 µM | >64 µM | >64 µM | >64 µM |  | 
36 | KRKILILIKRK [M1] | >64 µM | 2 µM | 8 µM | >64 µM |  | 
37 | KRKILILIKR [C3] | >64 µM | 8 µM | 16 µM | >64 µM |  | 
38 | ILILIKRK [N5] | >64 µM | 64 µM | 64 µM | >64 µM |  | 
39 | KKKKKIIIIIDKKKK [D6] | >64 µM | 16 µM | 32 µM | >64 µM |  | 
40 | KRKIL [C8, KRKIL] | >64 µM | >64 µM | >64 µM | >64 µM |  | 
41 | KKKIIIIIIKKK-NH2 [O1′] |  |  |  |  | 0.25 µM | 4 µM
